In US4894173A, “Divalent ion tolerant aromatic sulfonates” (The Standard Oil Company, priority 1988, dated 1990):

What was measured:
Assay type in all cases: physicochemical
[1] = 60° C. solubility in deionized (distilled) water and in seawater; parameters: key to 60° C. Solubility (@ mEq/L), H2O / 60° C. Solubility (@ mEq/L), Seawater: S: completely soluble; P: partially soluble; I: insoluble; T: turbid solution
Description: As mentioned above, surfactants for EOR must be compatible with divalent ion containing brines such as seawater. Solubility tests were carried out in both deionized water and in seawater. The surfactants of this invention (Examples 1-5) were all soluble in seawater. […] A commercial sulfonate (SDBS, Comparative Example 3) was insoluble in seawater. All surfactants were soluble in distilled water.
^ d S = completely soluble P = partially soluble I = insoluble T =

[2] = Surface tension (lowering of the air/water surface tension), Table 2; conditions: 10 mEq/L, deionized water, 22° C.
Description: The surface activity - lowering of the air/water surface tension - of the
surfactants was also measured. Surface tensions were measured at a
surfactant concentration of 10 milliequivalents/L in deionized water at
22° C. or a Fisher Autotensiomat (de Nouy ring) apparatus. At this
concentration, all the surfactants should be above their critical micell
^f Of a 10 mEq/L solution of surfactant at 22° C.

[3] = Calcium-ion tolerance (calcium precipitation) test; conditions: for Calcium Precipitation (ppm CA^2+): 10 mEq/L surfactant titrated with 5 M CaCl2 until transmittance (600 nm) 80% of initial; for Calcium Precipitation (ppm CA^2+), lower concentration / Calcium Precipitation (ppm CA^2+), higher concentration: 10 mEq/L; for Calcium Precipitation (ppm CA^2+), lower concentration: one component apparently precipitates at the lower calcium ion concentration; for Calcium Precipitation (ppm CA^2+), higher concentration: remainder precipitates at the higher calcium concentration
Description: Calcium-ion tolerance tests were conducted to quantify the relative solubility of the surfactants in the presence of divalent ions (see Table 2). All of the surfactants of this invention tolerated calcium ion concentrations from 28 to 10,000 times higher than the comparative examples.
^e A 10 mEq/L solution of Surfactant was titrated with 5 M CaCl2
solution until the transmittance of the solution (600 nm) was reduced to
80% of the initial value.
^g One component apparently precipitates out at the lower calcium ion
concentration and the reminder at the higher calcium concentration.

[4] = CMC (critical micelle concentration) from surface tension vs. surfactant concentration curves; conditions: calcium ion concentration 0
Description: (§1) Surface tensions (in dynes/cm) were measured using the Du Nouy ring method. The reported surface tensions are for 10 meq/L surfactant solutions: which is above the CMC (critical micelle concentration). The CMC's (in meq/L) were determined by examination of surface tension vs. surfactant concentration curves.

[5] = Surface tension by Du Nouy ring method at varied calcium ion concentration, Table 3
Description: as §1

[6] = Thermal stability at 90° C.; surfactant activity by two-phase titration; conditions: for Surfactant Activity (%): 90° C.; for appearance: aged at 90° C.
Description: Surfactant solutions were prepared in distilled water, 1.2M sodium hydroxide, and 1.2M hydrochloric acid. These solutions were aged at 90° C. Samples were withdrawn at regular interval and surfactant activity was determined by two-phase titration.

[7] = Foam formation/stability, simple version of the Ross-Miles foam test; conditions: 10 meq/L
Description: Foam tests were conducted using a simple version of the Ross-Miles foam test. The initial (0 min) foam volume for SDBS was assigned a value of 100. All other foam volumes were related to this value.

[8] = Divalent ion tolerance as stated in the description; conditions: divalent ion concentration tolerated / stable to

CCCCCCCCCCCCc1ccc(O)c(S(=O)(=O)O)c1 [Comparative Example 1]
60° C. Solubility (@ mEq/L), H2O ([1]; 24 mEq/L): S | solubility in seawater (in words) [1]: either insoluble or partially soluble | 60° C. Solubility (@ mEq/L), Seawater ([1]; 25 mEq/L): I | Surface Tension [2]: 23.4 Dyne/cm | Calcium Precipitation (ppm CA^2+) [3]: < 80 ppm

CCCCCCCCC(CO)CCC(C)c1ccc(S(=O)(=O)O)cc1 (stereo not shown) [Example 3]
60° C. Solubility (@ mEq/L), H2O ([1]; 18 mEq/L): S | 60° C. Solubility (@ mEq/L), Seawater ([1]; 27 mEq/L): S | Surface Tension [2]: 26.4 Dyne/cm | Calcium Precipitation (ppm CA^2+) [3]: 40K

CCCCCCCCCc1ccc(O)c(S(=O)(=O)O)c1 [Comparative Example 2]
60° C. Solubility (@ mEq/L), H2O ([1]; 30 mEq/L): S,T | solubility in seawater (in words) [1]: either insoluble or partially soluble | 60° C. Solubility (@ mEq/L), Seawater ([1]; 28 mEq/L): P | Surface Tension [2]: 24.9 Dyne/cm | Calcium Precipitation (ppm CA^2+) [3]: 160 ppm

CCCCCCC(CO)CCC(C)c1ccc(S(=O)(=O)O)cc1 (stereo not shown) [Example 1]
60° C. Solubility (@ mEq/L), H2O ([1]; 18 mEq/L): S | Surface Tension [2]: 25.1 Dyne/cm | Calcium Precipitation (ppm CA^2+) [3]: 2800 ppm

CCCCCCCCC(CO)Cc1ccc(S(=O)(=O)O)cc1 (stereo not shown) [Example 5]
60° C. Solubility (@ mEq/L), H2O ([1]; 15 mEq/L): S | 60° C. Solubility (@ mEq/L), Seawater ([1]; 27 mEq/L): S | Surface Tension [2]: 29.3 Dyne/cm | Calcium Precipitation (ppm CA^2+) [3]: 100K

CCCCCCC(CO)Cc1ccc(S(=O)(=O)O)cc1 (stereo not shown) [Example 4]
60° C. Solubility (@ mEq/L), H2O ([1]; 15 mEq/L): S | 60° C. Solubility (@ mEq/L), Seawater ([1]; 26 mEq/L): S | Surface Tension [2]: 25.2 Dyne/cm | Calcium Precipitation (ppm CA^2+), lower concentration [3]: 350 ppm | Calcium Precipitation (ppm CA^2+), higher concentration [3]: 57000 ppm

CCCCCC(CO)CCC(C)c1ccc(S(=O)(=O)O)cc1 (stereo not shown) [Example 2]
60° C. Solubility (@ mEq/L), H2O ([1]; 35 mEq/L): S | 60° C. Solubility (@ mEq/L), Seawater ([1]; 34 mEq/L): S | Surface Tension [2]: 25.6 Dyne/cm | Calcium Precipitation (ppm CA^2+), lower concentration [3]: 355 ppm | Calcium Precipitation (ppm CA^2+), higher concentration [3]: 20000 ppm

sodium dodecylbenzenesulfonate [SDBS]
CMC [4]: 1 meq/L | Surface Tension ([5]; 10 meq/L surfactant, calcium ion concentration 0): 29 dynes/cm | Surface Tension (observation in words) ([5]; calcium ion concentration 1000 PPM): surfactant precipitate | Surface Tension (observation in words) ([5]; calcium ion concentration 10,000 PPM): surfactant precipitate | Surfactant Activity (%) ([6]; 1.2 M HCl, 0 hr): 100% | Surfactant Activity (%) ([6]; 1.2 M HCl, 305 hr): 92% | Surfactant Activity (%) ([6]; 1.2 M HCl, 500 hr): 59% | Surfactant Activity (%) ([6]; 1.2 M HCl, 720 hr): 41% | appearance ([6]; 1.2 M HCl): ppt | Surfactant Activity (%) ([6]; 1.2 M NaOH, 0 hr): 1% | appearance ([6]; 1.2 M NaOH): ppt | Surfactant Activity (%) ([6]; distilled water, 0 hr): 100% | Surfactant Activity (%) ([6]; distilled water, 330 hr): 93% | Surfactant Activity (%) ([6]; distilled water, 525 hr): 93% | Surfactant Activity (%) ([6]; distilled water, 740 hr): 93% | appearance ([6]; distilled water): clear | 60° C. Solubility (@ mEq/L), H2O ([1]; 27 mEq/L): S | solubility in seawater (in words) [1]: insoluble | 60° C. Solubility (@ mEq/L), Seawater ([1]; 27 mEq/L): I | Surface Tension [2]: 28.6 Dyne/cm | Calcium Precipitation (ppm CA^2+) [3]: 90 ppm | Foam Volume (relative to initial SDBS = 100) ([7]; 0 min): 100 | Foam Volume (relative to initial SDBS = 100) ([7]; +5 min): 94 | Foam Volume (relative to initial SDBS = 100) ([7]; +15 min): 83 | Foam Volume (relative to initial SDBS = 100) ([7]; +30 min): 77 | Foam Volume (relative to initial SDBS = 100) ([7]; +45 min): 71 | divalent ion tolerance [8]: 100 ppm
